Assay results published in patent US10674728B2, “Pesticidal compositions” (SYNGENTA PARTICIPATIONS AG, priority 2016, dated 2020).

What was measured:
Rhizoctonia solani = assay: Tests against Rhizoctonia solani (foot rot, damping-off), growth inhibition in microtiter plate; assay type: cell-based; conditions: 72 hrs, 24° C., read-out: Observed % activity
[1] = system: Glomerella lagenarium syn. Colletotrichum lagenarium; assay: Tests against Glomerella lagenarium (anthracnose of cucurbits), growth inhibition in microtiter plate; assay type: cell-based; conditions: Colletotrichum orbiculare, 72 hrs, 24° C., read-out: Observed % activity
Pyricularia orzyae = assay: microbe, parasite or virus in culture; assay type: cell-based; conditions: 72 h, read-out: Observed % activity
[2] = system: Rice (Oryza sativa L.) of the local variety ADT45; assay: Heat stress mitigation field trials in rice, grain yield; assay type: in vivo; conditions: 10 gAl/Ha, foliar spray at panicle formation (BBCH 32), hot season
Description: Tests were conducted to determine the heat stress mitigation efficacy of compositions of the present invention.
Trials were conducted in the Tamil Nadu rice production area (India) during the hot season in 2016.
Rice (Oryza sativa L.) of the local variety ADT45 was mechanically transplanted at four plants per hill with a plant spacing of 16 cm and a row spacing of 30 cm. All trials were performed in good level of water management. Fertilizer was applied in accordance with the best local practice across the trial area.
Commercial treated seeds (no neonicotinoids as seed treatments) were used. Weed control was according to the best local practice in order to provide excellent weed control. Foliar fungicides and insecticides were applied according to common practice (no products that contain neonicotinoids or strobilurins).
The trial design was a randomized bloc design. Plot size was 40 m^2 (4 m width [12 rows] by 10 m row length). Each trial had four replicates. In total, eleven trials were conducted.
Treatments were applied with small-plot hand-held boom sprayer as broadcast foliar spray in close proximity to leaf/canopy surface (25-40 cm distance from the crop), at the following different treatment timings: panicle initiation (BBCH 30), panicle formation (BBCH 32), spikelet differentiation (BBCH 35) and meiosis (BBCH 39).

[3] = (A) Formula (Ia) 10.0 ppm alone

CC1COC(Cn2cncn2)(c2ccc(Oc3ccc(Cl)cc3)cc2Cl)O1 (stereo not shown) [Difenoconazole, difenoconazole, reference compound] was tested, and the inhibition at 2 ppm (Rhizoctonia solani; (B) Difenoconazole 2.0 ppm alone) was 47%, the inhibition at 0.25 ppm ([1]; (B) Difenoconazole 0.25 ppm alone) was 36% and the inhibition at 0.0625 ppm (Pyricularia orzyae) was 34%. It also gave an inhibition at 0.25 ppm (Pyricularia orzyae) of 71%.
Work on COc1cccc(Nc2nc(F)nc3[nH]cnc23)c1 [Formula (Ia)] yielded an inhibition at 5 ppm (Rhizoctonia solani; (A) Formula (Ia) 5.0 ppm alone, inhibition of growth, photometric) of 7%, an inhibition at 10 ppm (Rhizoctonia solani; [3]) of 0% and an inhibition at 20 ppm (Rhizoctonia solani; (A) Formula (Ia) 20.0 ppm alone) of 0%. The inhibition at 0.625 ppm ([1]; (A) Formula (Ia) 0.6250 ppm alone, inhibition of growth, photometric at 620 nm) was 5%, the inhibition at 1.25 ppm ([1]; (A) Formula (Ia) 1.25 ppm alone) was 0% and the inhibition at 2.5 ppm ([1]; (A) Formula (Ia) 2.5 ppm alone) was 2%. The inhibition at 5 ppm ([1]; (A) Formula (Ia) 5.0 ppm alone) was 0%, the inhibition at 10 ppm [1, 3] was 0% and the inhibition at 0.1563 ppm (Pyricularia orzyae) was 0%. The inhibition at 10 ppm (Pyricularia orzyae) was 3%, the “Average yield increase compared to UTC” value [2] was 4.4% and the “Yield at 14% MC” value [2] was 6820 kg/ha.
